`N=C(Nc1ccc(OC2CCCC2)c(CN2CCC[C@@H]2CO)c1)c1cccs1` [Example 21, N-(4-(Cyclopentyloxy)-3{[(2R)-2-(Hydroxymethyl)Pyrrolidinyl]Methyl}Phenyl)-2-Thiophenecarboximidamide]: the melting point – broadly, the temperature of the solid-liquid transition – is 126 to 127 °C.

`N=C(Nc1ccc(C2CCCC2)c(CN2CCC[C@H]2CO)c1)c1cccs1` [Example 31, N-(4-Cyclopentyl-3-{[(2S)-2-(Hydroxymethyl)Pyrrolidinyl]Methyl}Phenyl)-2-Thiophenecarboximidamide] showed a melting point of 132 to 133 °C.

With `CN(CCO)Cc1cc(NC(=N)c2cccs2)ccc1C1CCCC1` [Example 30, N-(4-Cyclopentyl-3-{[(2-Hydroxyethyl)(Methyl)Amino]Methyl}Phenyl)-2-Thiophenecarboximidamide], the melting point is 116 to 118 °C.

(Values after patent US20020137750A1, “Amidine derivatives which are inhibitors of nitric oxide synthase” (priority 1999, published 2002).)
